Source: patent US10501425B2, “Microbiocidal oxadiazole derivatives” (SYNGENTA PARTICIPATIONS AG, priority 2015, dated 2019)

Experiments:
[1] = system: Puccinia recondita f. Sp. Tritici; assay: Puccinia recondita f. sp. tritici / wheat / leaf disc curative (brown rust); format: in vivo; conditions: foliar, 24 h, 200 ppm in the applied formulation, wheat leaf segments cv. Kanzler, curative (applied 1 day after inoculation), compared to untreated, read-out: disease control
Method: (§1) Leaf disks or leaf segments of various plant species are cut from plants grown in a greenhouse. The cut leaf disks or segments are placed in multiwell plates (24-well format) onto water agar. The leaf disks are sprayed with a test solution before (preventative) or after (curative) inoculation. Compounds to be tested are prepared as DMSO solutions (max. 10 mg/ml) which are diluted to the appropriate concentration with 0.025% Tween20 just before spraying. The inoculated leaf disks or segments are incubated under defined conditions (temperature, relative humidity, light, etc.) according to the respective test system. A single evaluation of disease level is carried out 3 to 14 days after inoculation, depending on the pathosystem. Percent disease control relative to the untreated check leaf disks or segments is then calculated.
Wheat leaf segments cv. Kanzler are placed on agar in multiwell plates (24-well format). The leaf segments are then inoculated with a spore suspension of the fungus. Plates were stored in darkness at 19° C. and 75% relative humidity. The formulated test compound diluted in water was applied 1 day after inoculation. The leaf segments were incubated at 19° C. and 75% relative humidity under a light regime of 12 hours light/12 hours darkness in a climate cabinet and the activity of a compound was assessed as percent disease control compared to untreated when an appropriate level of disease damage appears in untreated check leaf segments (6 to 8 days after application).
The following compounds at 200 ppm in the applied formulation give at least 80% disease control in this test when compared to untreated control leaf disks under the same conditions, which show extensive disease development.

[2] = system: Puccinia recondita f. Sp. Tritici; assay: Puccinia recondita f. sp. tritici / wheat / leaf disc preventative (brown rust); format: in vivo; conditions: foliar, 200 ppm in the applied formulation, wheat leaf segments cv. Kanzler, preventative (inoculated 1 day after application), compared to untreated, read-out: disease control
Method: as §1, with “calculated. Wheat leaf segments cv. Kanzler were placed on agar in multiwell plates (24-well format) and sprayed with the formulated test compound diluted in water. The leaf disks were inoculated with a spore suspension of the fungus 1 day after application. The inoculated leaf segments were incubated at 19° C. and 75% relative humidity (rh) under a light regime of 12 hours light/12 hours darkness in a climate cabinet and the activity of a compound was assessed as percent disease control compared to untreated when an appropriate level of disease damage appears in untreated check leaf segments (7 to 9 days after application). The following compounds at 200 ppm in the applied formulation give at least 80% disease control in this test when compared to untreated control leaf disks under the same conditions, which show extensive disease development.” for “calculated.”

[3] = system: Glomerella lacenarium (Colletotrichum lagenarium); assay: Glomerella lagenarium liquid culture / cucumber / preventative (anthracnose); format: cell-based; conditions: Colletotrichum orbiculare; 20 ppm in the applied formulation; liquid culture (PDB), growth inhibition measured photometrically 3 to 4 days after application; compared to untreated; read-out: disease control
Method: Mycelia fragments or conidia suspensions of a fungus prepared either freshly from liquid cultures of the fungus or from cryogenic storage, are directly mixed into nutrient broth. DMSO solutions of the test compound (max. 10 mg/ml) are diluted with 0.025% Tween20 by a factor of 50 and 10 μl of this solution is pipetted into a microtiter plate (96-well format). The nutrient broth containing the fungal spores/mycelia fragments is then added to give an end concentration of the tested compound. The test plates are incubated in the dark at 24° C. and 96% relative humidity. The inhibition of fungal growth is determined photometrically after 2 to 7 days, depending on the pathosystem, and percent antifungal activity relative to the untreated check is calculated.
Conidia of the fungus from cryogenic storage are directly mixed into nutrient broth (PDB—potato dextrose broth). After placing a (DMSO) solution of test compound into a microtiter plate (96-well format), the nutrient broth containing the fungal spores is added.
The following compounds at 20 ppm in the applied formulation give at least 80% disease control in this test when compared to untreated control under the same conditions, which show extensive disease development.

N#CCC(=O)NCc1ccc(-c2noc(C(F)(F)F)n2)c(F)c1 [Compound 1.43, 2-cyano-N-[[3-fluoro-4-[5-(trifluoromethyl)-1,2,4-oxadiazol-3-yl]phenyl]methyl]acetamide]
≥ 80%: pest or weed control at 200 ppm [1] | pest or weed control at 200 ppm [2] | inhibition of growth at 20 ppm [3]

O=C(NCc1ccc(-c2noc(C(F)(F)F)n2)cn1)OCCCCCl [Compound 2.28, 4-chlorobutyl N-[[5-[5-(trifluoromethyl)-1,2,4-oxadiazol-3-yl]-2-pyridyl]methyl]carbamate]
≥ 80%: pest or weed control at 200 ppm [1] | pest or weed control at 200 ppm [2] | inhibition of growth at 20 ppm [3]

CC(C)(C)NC(=O)NCc1ccc(-c2noc(C(F)(F)F)n2)cc1 [Compound 3.15, 1-tert-butyl-3-[[4-[5-(trifluoromethyl)-1,2,4-oxadiazol-3-yl]phenyl]methyl]urea]
≥ 80%: pest or weed control at 200 ppm [1] | pest or weed control at 200 ppm [2] | inhibition of growth at 20 ppm [3]

CCOC(=O)NCc1ccc(-c2noc(C(F)(F)F)n2)cn1 [Compound 2.32, ethyl N-[[5-[5-(trifluoromethyl)-1,2,4-oxadiazol-3-yl]-2-pyridyl]methyl]carbamate]
≥ 80%: pest or weed control at 200 ppm [1] | pest or weed control at 200 ppm [2] | inhibition of growth at 20 ppm [3]

CCCC(=O)NCc1ccc(-c2noc(C(F)(F)F)n2)cn1 [Compound 1.67, N-[[5-[5-(trifluoromethyl)-1,2,4-oxadiazol-3-yl]-2-pyridyl]methyl]butanamide]
≥ 80%: pest or weed control at 200 ppm [1] | pest or weed control at 200 ppm [2] | inhibition of growth at 20 ppm [3]

COCCCC(=O)NCc1ccc(-c2noc(C(F)(F)F)n2)cn1 [Compound 1.72, 4-methoxy-N-[[5-[5-(trifluoromethyl)-1,2,4-oxadiazol-3-yl]-2-pyridyl]methyl]butanamide]
≥ 80%: pest or weed control at 200 ppm [1] | pest or weed control at 200 ppm [2] | inhibition of growth at 20 ppm [3]

COCCCC(=O)NCc1ccc(-c2noc(C(F)(F)F)n2)c(F)c1F [Compound 1.61, N-[[2,3-difluoro-4-[5-(trifluoromethyl)-1,2,4-oxadiazol-3-yl]phenyl]methyl]-4-methoxy-butanamide]
≥ 80%: pest or weed control at 200 ppm [1] | pest or weed control at 200 ppm [2] | inhibition of growth at 20 ppm [3]

COCCCC(=O)NCc1ccc(-c2noc(C(F)(F)F)n2)cc1F [Compound 1.42, N-[[2-fluoro-4-[5-(trifluoromethyl)-1,2,4-oxadiazol-3-yl]phenyl]methyl]-4-methoxy-butanamide]
≥ 80%: pest or weed control at 200 ppm [1] | pest or weed control at 200 ppm [2] | inhibition of growth at 20 ppm [3]

CC#CCOC(=O)NCc1ccc(-c2noc(C(F)(F)F)n2)cn1 [Compound 2.21, but-2-ynyl N-[[5-[5-(trifluoromethyl)-1,2,4-oxadiazol-3-yl]-2-pyridyl]methyl]carbamate]
≥ 80%: pest or weed control at 200 ppm [1] | pest or weed control at 200 ppm [2] | inhibition of growth at 20 ppm [3]

COCCCC(=O)NCc1ccc(-c2noc(C(F)(F)F)n2)cc1Cl [Compound 1.60, N-[[2-chloro-4-[5-(trifluoromethyl)-1,2,4-oxadiazol-3-yl]phenyl]methyl]-4-methoxy-butanamide]
≥ 80%: pest or weed control at 200 ppm [1] | pest or weed control at 200 ppm [2] | inhibition of growth at 20 ppm [3]

CCC(C)C(=O)NCc1ccc(-c2noc(C(F)(F)F)n2)cn1 (stereo not drawn) [Compound 1.71, 2-methyl-N-[[5-[5-(trifluoromethyl)-1,2,4-oxadiazol-3-yl]-2-pyridyl]methyl]butanamide]
≥ 80%: pest or weed control at 200 ppm [1] | pest or weed control at 200 ppm [2] | inhibition of growth at 20 ppm [3]

CC(C)OC(=O)NCc1ccc(-c2noc(C(F)(F)F)n2)cn1 [Compound 2.29, isopropyl N-[[5-[5-(trifluoromethyl)-1,2,4-oxadiazol-3-yl]-2-pyridyl]methyl]carbamate]
≥ 80%: pest or weed control at 200 ppm [1] | pest or weed control at 200 ppm [2] | inhibition of growth at 20 ppm [3]

O=C(CC(F)(F)F)NCc1ccc(-c2noc(C(F)(F)F)n2)cn1 [Compound 1.74, 3,3,3-trifluoro-N-[(5-[5-(trifluoromethyl)-1,2,4-oxadiazol-3-yl]-2-pyridyl]methyl]propanamide]
≥ 80%: pest or weed control at 200 ppm [1] | pest or weed control at 200 ppm [2] | inhibition of growth at 20 ppm [3]

N#CCC(=O)NCc1ccc(-c2noc(C(F)(F)F)n2)cc1F [Compound 1.45, 2-cyano-N-[[2-fluoro-4-[5-(trifluoromethyl)-1,2,4-oxadiazol-3-yl]phenyl]methyl]acetamide]
≥ 80%: pest or weed control at 200 ppm [1] | pest or weed control at 200 ppm [2] | inhibition of growth at 20 ppm [3]

CC(C)C(=O)NCc1ccc(-c2noc(C(F)(F)F)n2)cn1 [Compound 1.66, 2-methyl-N-[[5-[5-(trifluoromethyl)-1,2,4-oxadiazol-3-yl]-2-pyridyl]methyl]propanamide]
≥ 80%: pest or weed control at 200 ppm [1] | pest or weed control at 200 ppm [2] | inhibition of growth at 20 ppm [3]

CC(C)(C)COC(=O)NCc1ccc(-c2noc(C(F)(F)F)n2)cc1 [Compound 2.18, 2,2-dimethylpropyl N-[[4-[5-(trifluoromethyl)-1,2,4-oxadiazol-3-yl]phenyl]methyl]carbamate]
≥ 80%: pest or weed control at 200 ppm [1] | pest or weed control at 200 ppm [2] | inhibition of growth at 20 ppm [3]

O=C(NCc1ccc(-c2noc(C(F)(F)F)n2)cn1)OCCCl [Compound 2.33, 2-chloroethyl N-[[5-[5-(trifluoromethyl)-1,2,4-oxadiazol-3-yl]-2-pyridyl]methyl]carbamate]
≥ 80%: pest or weed control at 200 ppm [1] | pest or weed control at 200 ppm [2] | inhibition of growth at 20 ppm [3]

COCCC(=O)NCc1ccc(-c2noc(C(F)(F)F)n2)cc1F [Compound 1.37, N-[[2-fluoro-4-[5-(trifluoromethyl)-1,2,4-oxadiazol-3-yl]phenyl]methyl]-3-methoxy-propanamide]
≥ 80%: pest or weed control at 200 ppm [1] | pest or weed control at 200 ppm [2] | inhibition of growth at 20 ppm [3]

O=C(NCc1ccc(-c2noc(C(F)(F)F)n2)cn1)OCCCCl [Compound 2.31, 3-chloropropyl N-[[5-[5-(trifluoromethyl)-1,2,4-oxadiazol-3-yl]-2-pyridyl]methyl]carbamate]
≥ 80%: pest or weed control at 200 ppm [1] | pest or weed control at 200 ppm [2] | inhibition of growth at 20 ppm [3]

COCCC(=O)NCc1ccc(-c2noc(C(F)(F)F)n2)c(F)c1 [Compound 1.79, N-[[3-fluoro-4-[5-(trifluoromethyl)-1,2,4-oxadiazol-3-yl]phenyl]methyl]-3-methoxy-propanamide]
≥ 80%: pest or weed control at 200 ppm [1] | pest or weed control at 200 ppm [2] | inhibition of growth at 20 ppm [3]

COCC(=O)NCc1ccc(-c2noc(C(F)(F)F)n2)cn1 [Compound 1.69, 2-methoxy-N-[[5-[5-(trifluoromethyl)-1,2,4-oxadiazol-3-yl]-2-pyridyl]methyl]acetamide]
≥ 80%: pest or weed control at 200 ppm [1] | pest or weed control at 200 ppm [2] | inhibition of growth at 20 ppm [3]

O=C(NCc1ccc(-c2noc(C(F)(F)F)n2)cn1)OCCF [Compound 2.30, 2-fluoroethyl N-[[5-[5-(trifluoromethyl)-1,2,4-oxadiazol-3-yl]-2-pyridyl]methyl]carbamate]
≥ 80%: pest or weed control at 200 ppm [1] | pest or weed control at 200 ppm [2] | inhibition of growth at 20 ppm [3]
